Test results reported in patent US12723063B2, “GIPR-agonist compounds” (Eli Lilly and Company, priority 2019, dated 2026).
pKi: −log10 of the molar value. *1 amine or outer side, *2 acyl side, *3 side chain or, on linkers, in order; H or OH if unused. Where a SMILES comes first, the peptide text is derived from it. Side-chain parts run from the residue outwards. [ ]: non-standard residue; d: D form. The star is where a group is joined. C20 diacid = O=C(O)CCCCCCCCCCCCCCCCCCC(=O)*; γGlu = O=C(O)[C@H](CCC(=O)[*:2])N[*:1]; αMeL = CC(C)C[C@](C)(N)C(=O)O; AEEA = NCCOCCOCC(=O)O; Aib = CC(C)(N)C(=O)O

Biological target: T1, human GcgR (Homo sapiens, UniProt P47871)
T1 construct: expressed in transfected cells; crude membranes
Test: [125I]-Glucagon binding, SPA with WGA beads, 0.1% bacitracin
Details: geometric mean, read-out: hGcgR Ki
Procedure, shortened: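 SPA competition binding with WGA beads on crude membranes from HEK293 cells stably expressing hGcgR. Buffer: 25 mM HEPES pH 7.4, 2.5 mM CaCl2, 1 mM MgCl2, 0.1% bacitracin, 0.003% Tween-20; 10-point 3-fold dilutions, NSB with 1 μM Gcg.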

T1 sequence (P47871 26-477): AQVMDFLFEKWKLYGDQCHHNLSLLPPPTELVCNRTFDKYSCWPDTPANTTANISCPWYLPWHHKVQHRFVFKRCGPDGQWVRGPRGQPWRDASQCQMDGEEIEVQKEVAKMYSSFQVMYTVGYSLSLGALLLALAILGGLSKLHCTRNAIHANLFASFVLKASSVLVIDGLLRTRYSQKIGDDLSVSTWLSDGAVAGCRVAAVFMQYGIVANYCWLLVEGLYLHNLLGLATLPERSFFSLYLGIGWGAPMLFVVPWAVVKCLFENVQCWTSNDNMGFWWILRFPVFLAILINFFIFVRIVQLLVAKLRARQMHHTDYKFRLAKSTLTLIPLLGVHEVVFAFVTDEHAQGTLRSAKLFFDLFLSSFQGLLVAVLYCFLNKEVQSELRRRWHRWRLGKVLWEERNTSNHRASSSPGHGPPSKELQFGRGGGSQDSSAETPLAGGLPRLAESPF

Structure (SMILES)	pKi
CC[C@H](C)[C@H](NC(=O)[C@H](Cc1ccccc1)NC(=O)[C@@H](NC(=O)CNC(=O)[C@H](CCC(=O)O)NC(=O)C(C)(C)NC(=O)[C@@H](N)Cc1ccc(O)cc1)[C@@H](C)O)C(=O)N[C@@H](CO)C(=O)N[C@@H](CC(=O)O)C(=O)N[C@@H](Cc1ccc(O)cc1)C(=O)N[C@@H](CO)C(=O)N[C@H](C(=O)N[C@@](C)(CC(C)C)C(=O)N[C@@H](CC(C)C)C(=O)N[C@@H](CC(=O)O)C(=O)N[C@@H](CCCCN)C(=O)N[C@@H](CCCCNC(=O)COCCOCCNC(=O)COCCOCCNC(=O)CC[C@H](NC(=O)CCCCCCCCCCCCCCCCCCC(=O)O)C(=O)O)C(=O)N[C@@H](Cc1c[nH]cn1)C(=O)N[C@@H](CCC(N)=O)C(=O)NC(C)(C)C(=O)N[C@@H](CCC(=O)O)C(=O)N[C@@H](Cc1ccccc1)C(=O)N[C@H](C(=O)N[C@@H](CCC(=O)O)C(=O)N[C@@H](Cc1ccc(O)cc1)C(=O)N[C@@H](CC(C)C)C(=O)N[C@@H](CC(C)C)C(=O)N[C@@H](CCC(=O)O)C(=O)N[C@@H](CCC(N)=O)C(=O)NCC(=O)N1CCC[C@H]1C(=O)N[C@@H](CO)C(=O)N[C@@H](CO)C(=O)NCC(=O)N[C@@H](C)C(=O)N1CCC[C@H]1C(=O)N1CCC[C@H]1C(=O)N1CCC[C@H]1C(=O)N[C@@H](CO)C(N)=O)C(C)C)[C@@H](C)CC [Example 63] (H-Y[Aib]EGTFISDYSI[αMeL]LDKK([AEEA-AEEA-γGlu-C20 diacid])HQ[Aib]EFVEYLLEQGPSSGAPPPS-NH2)	6.73
CC[C@H](C)[C@H](NC(=O)[C@H](Cc1ccccc1)NC(=O)[C@@H](NC(=O)CNC(=O)[C@H](CCC(=O)O)NC(=O)C(C)(C)NC(=O)[C@@H](N)Cc1ccc(O)cc1)[C@@H](C)O)C(=O)N[C@@H](CO)C(=O)N[C@@H](CC(=O)O)C(=O)N[C@@H](Cc1ccc(O)cc1)C(=O)N[C@@H](CO)C(=O)N[C@H](C(=O)N[C@@](C)(CC(C)C)C(=O)N[C@@H](CC(C)C)C(=O)N[C@@H](CC(=O)O)C(=O)N[C@@H](CCCCN)C(=O)N[C@@H](CCCCNC(=O)COCCOCCNC(=O)COCCOCCNC(=O)CC[C@H](NC(=O)CCCCCCCCCCCCCCCCCCC(=O)O)C(=O)O)C(=O)N[C@@H](Cc1c[nH]cn1)C(=O)N[C@@H](CCC(N)=O)C(=O)NC(C)(C)C(=O)N[C@@H](CCC(=O)O)C(=O)N[C@@H](Cc1ccccc1)C(=O)N[C@H](C(=O)N[C@@H](CCC(=O)O)C(=O)N[C@@H](Cc1ccc(O)cc1)C(=O)N[C@@H](CC(C)C)C(=O)N[C@@H](CC(C)C)C(=O)N[C@@H](CCC(=O)O)C(=O)N[C@H](C(=O)NCC(=O)N1CCC[C@H]1C(=O)N[C@@H](CO)C(=O)N[C@@H](CO)C(=O)NCC(=O)N[C@@H](C)C(=O)N1CCC[C@H]1C(=O)N1CCC[C@H]1C(=O)N1CCC[C@H]1C(=O)N[C@@H](CO)C(N)=O)[C@@H](C)O)C(C)C)[C@@H](C)CC [Example 64] (H-Y[Aib]EGTFISDYSI[αMeL]LDKK([AEEA-AEEA-γGlu-C20 diacid])HQ[Aib]EFVEYLLETGPSSGAPPPS-NH2)	6.71
CC[C@H](C)[C@H](NC(=O)[C@H](Cc1ccccc1)NC(=O)[C@@H](NC(=O)CNC(=O)[C@H](CCC(=O)O)NC(=O)C(C)(C)NC(=O)[C@@H](N)Cc1ccc(O)cc1)[C@@H](C)O)C(=O)N[C@@H](CO)C(=O)N[C@@H](CC(=O)O)C(=O)N[C@@H](Cc1ccc(O)cc1)C(=O)N[C@@H](CO)C(=O)N[C@H](C(=O)N[C@@](C)(CC(C)C)C(=O)N[C@@H](CC(C)C)C(=O)N[C@@H](CC(=O)O)C(=O)N[C@@H](CCCCN)C(=O)N[C@@H](CCCCNC(=O)COCCOCCNC(=O)COCCOCCNC(=O)CC[C@H](NC(=O)CCCCCCCCCCCCCCCCCCC(=O)O)C(=O)O)C(=O)N[C@@H](Cc1c[nH]cn1)C(=O)N[C@@H](CCC(N)=O)C(=O)NC(C)(C)C(=O)N[C@@H](CCC(=O)O)C(=O)N[C@@H](Cc1ccccc1)C(=O)N[C@H](C(=O)N[C@@H](CCC(=O)O)C(=O)N[C@@H](Cc1ccc(O)cc1)C(=O)N[C@@H](CC(C)C)C(=O)N[C@@H](CC(C)C)C(=O)N[C@@H](CCC(=O)O)C(=O)N[C@@H](C)C(=O)NCC(=O)N1CCC[C@H]1C(=O)N[C@@H](CO)C(=O)N[C@@H](CO)C(=O)NCC(=O)N[C@@H](C)C(=O)N1CCC[C@H]1C(=O)N1CCC[C@H]1C(=O)N1CCC[C@H]1C(=O)N[C@@H](CO)C(N)=O)C(C)C)[C@@H](C)CC [Example 65] (H-Y[Aib]EGTFISDYSI[αMeL]LDKK([AEEA-AEEA-γGlu-C20 diacid])HQ[Aib]EFVEYLLEAGPSSGAPPPS-NH2)	6.55
CC[C@H](C)[C@H](NC(=O)[C@H](Cc1ccccc1)NC(=O)[C@@H](NC(=O)CNC(=O)[C@H](CCC(=O)O)NC(=O)C(C)(C)NC(=O)[C@@H](N)Cc1ccc(O)cc1)[C@@H](C)O)C(=O)N[C@@H](CO)C(=O)N[C@@H](CC(=O)O)C(=O)N[C@@H](Cc1ccc(O)cc1)C(=O)N[C@@H](CO)C(=O)N[C@H](C(=O)N[C@@](C)(CC(C)C)C(=O)N[C@@H](CC(C)C)C(=O)N[C@@H](CC(=O)O)C(=O)N[C@@H](CCCCN)C(=O)N[C@@H](CCCCNC(=O)COCCOCCNC(=O)COCCOCCNC(=O)CC[C@H](NC(=O)CCCCCCCCCCCCCCCCCCC(=O)O)C(=O)O)C(=O)N[C@@H](Cc1c[nH]cn1)C(=O)N[C@@H](CCC(N)=O)C(=O)NC(C)(C)C(=O)N[C@@H](CC(=O)O)C(=O)N[C@@H](Cc1ccccc1)C(=O)N[C@H](C(=O)N[C@@H](CCC(=O)O)C(=O)N[C@@H](Cc1ccc(O)cc1)C(=O)N[C@@H](CC(C)C)C(=O)N[C@@H](CC(C)C)C(=O)N[C@@H](CCC(=O)O)C(=O)N[C@H](C(=O)NCC(=O)N1CCC[C@H]1C(=O)N[C@@H](CO)C(=O)N[C@@H](CO)C(=O)NCC(=O)N[C@@H](C)C(=O)N1CCC[C@H]1C(=O)N1CCC[C@H]1C(=O)N1CCC[C@H]1C(=O)N[C@@H](CO)C(N)=O)[C@@H](C)O)C(C)C)[C@@H](C)CC [Example 66] (H-Y[Aib]EGTFISDYSI[αMeL]LDKK([AEEA-AEEA-γGlu-C20 diacid])HQ[Aib]DFVEYLLETGPSSGAPPPS-NH2)	6.55
CC[C@H](C)[C@H](NC(=O)[C@H](Cc1ccccc1)NC(=O)[C@@H](NC(=O)CNC(=O)[C@H](CCC(=O)O)NC(=O)C(C)(C)NC(=O)[C@@H](N)Cc1ccc(O)cc1)[C@@H](C)O)C(=O)N[C@@H](CO)C(=O)N[C@@H](CC(=O)O)C(=O)N[C@@H](Cc1ccc(O)cc1)C(=O)N[C@@H](CO)C(=O)N[C@H](C(=O)N[C@@](C)(CC(C)C)C(=O)N[C@@H](CC(C)C)C(=O)N[C@@H](CC(=O)O)C(=O)N[C@@H](CCCCN)C(=O)N[C@@H](CCCCNC(=O)COCCOCCNC(=O)COCCOCCNC(=O)CC[C@H](NC(=O)CCCCCCCCCCCCCCCCCCC(=O)O)C(=O)O)C(=O)N[C@@H](Cc1c[nH]cn1)C(=O)N[C@@H](CCC(N)=O)C(=O)NC(C)(C)C(=O)N[C@@H](CC(=O)O)C(=O)N[C@@H](Cc1ccccc1)C(=O)N[C@H](C(=O)N[C@@H](CCC(=O)O)C(=O)N[C@@H](Cc1ccc(O)cc1)C(=O)N[C@@H](CC(C)C)C(=O)N[C@@H](CC(C)C)C(=O)N[C@@H](CCC(=O)O)C(=O)N[C@@H](C)C(=O)NCC(=O)N1CCC[C@H]1C(=O)N[C@@H](CO)C(=O)N[C@@H](CO)C(=O)NCC(=O)N[C@@H](C)C(=O)N1CCC[C@H]1C(=O)N1CCC[C@H]1C(=O)N1CCC[C@H]1C(=O)N[C@@H](CO)C(N)=O)C(C)C)[C@@H](C)CC [Example 68] (H-Y[Aib]EGTFISDYSI[αMeL]LDKK([AEEA-AEEA-γGlu-C20 diacid])HQ[Aib]DFVEYLLEAGPSSGAPPPS-NH2)	6.54
